Measurements taken from PMC3483245, “Optimization of a direct spectrophotometric method to investigate the kinetics and inhibition of sialidases” (BMC Biochemistry, 2012).
Entries after “also recorded” stand apart in the source; their conditions may differ.

Tests used:
[1] = tested on: pneumococcal sialidases; design: method as in PMID 18835278; conditions: buffer substance; cited from earlier work
[2] = target: T1, NanA (Streptococcus pneumoniae, UniProt P62576); assay: biochemical; type: biochemical; conditions: for inhibition of NanA (in words): modified direct method
[3] = target: T2, NanC (Streptococcus pneumoniae, UniProt A0A0H2UQE4); assay: biochemical
[4] = target: T3, NanB (Streptococcus pneumoniae serotype 4, UniProt Q54727); assay: biochemical
[5] = target: T1, NanA; assay: Hydrolysis of p-NP-Neu5Ac by NanA, direct spectrophotometric method; type: biochemical; conditions: 30°C, 20 mM MES pH 6.0, 400 nm
[6] = target: T2, NanC; assay: Hydrolysis of p-NP-Neu5Ac by NanC, direct spectrophotometric method; type: biochemical; conditions: 30°C, 20 mM MES pH 6.0, 400 nm
[7] = target: T1, NanA; assay: Hydrolysis of p-NP-Neu5Ac by NanA, conventional indirect spectrophotometric method; type: biochemical; conditions: 37°C, stopped with 0.5 M Na2CO3 pH 9.0, 405 nm
Experimental: (§1) The activity of the sialidases was assayed colorimetrically and fluorometrically using the substrates p-NP-Neu5Ac (Sigma, St. Louis, Miss) and 4MU-Neu5Ac (Sigma, St- Louis, Miss), respectively. Conventional indirect assays were performed as previously described. Briefly, the reaction mixtures containing the substrates and up to 100 nM sialidase were incubated at 37°C and stopped by the addition of 0.5 M Na2CO3 pH 9.0 for the colorimetric assay or 0.25 M glycine pH 10.0 for the fluorimetric assay. Released p-NP was detected spectrophometrically at 405 nm. The fluorescence associated with the release of 4-MU was measured at the excitation wavelength of 365 nm and an emission wavelength of 445 nm. These measurements were performed using an EnVision microplate reader (Perkin Elmer, Waltham, Mass.).

[8] = target: T3, NanB; assay: Hydrolysis of p-NP-Neu5Ac by NanB, conventional indirect spectrophotometric method; type: biochemical; conditions: 37°C, stopped with 0.5 M Na2CO3 pH 9.0, 405 nm
Experimental: as §1

[9] = target: T2, NanC; assay: Hydrolysis of p-NP-Neu5Ac by NanC, conventional indirect spectrophotometric method; type: biochemical; conditions: 37°C, stopped with 0.5 M Na2CO3 pH 9.0, 405 nm
Experimental: as §1

[10] = tested on: NanB; conditions: direct method, 30°C, 20 mM MES pH 6.0, 400 nm
[11] = first order kinetics up to 500 μM substrate
[12] = first order kinetics up to 1,200 μM substrate

T2 sequence (A0A0H2UQE4 entry or part of it): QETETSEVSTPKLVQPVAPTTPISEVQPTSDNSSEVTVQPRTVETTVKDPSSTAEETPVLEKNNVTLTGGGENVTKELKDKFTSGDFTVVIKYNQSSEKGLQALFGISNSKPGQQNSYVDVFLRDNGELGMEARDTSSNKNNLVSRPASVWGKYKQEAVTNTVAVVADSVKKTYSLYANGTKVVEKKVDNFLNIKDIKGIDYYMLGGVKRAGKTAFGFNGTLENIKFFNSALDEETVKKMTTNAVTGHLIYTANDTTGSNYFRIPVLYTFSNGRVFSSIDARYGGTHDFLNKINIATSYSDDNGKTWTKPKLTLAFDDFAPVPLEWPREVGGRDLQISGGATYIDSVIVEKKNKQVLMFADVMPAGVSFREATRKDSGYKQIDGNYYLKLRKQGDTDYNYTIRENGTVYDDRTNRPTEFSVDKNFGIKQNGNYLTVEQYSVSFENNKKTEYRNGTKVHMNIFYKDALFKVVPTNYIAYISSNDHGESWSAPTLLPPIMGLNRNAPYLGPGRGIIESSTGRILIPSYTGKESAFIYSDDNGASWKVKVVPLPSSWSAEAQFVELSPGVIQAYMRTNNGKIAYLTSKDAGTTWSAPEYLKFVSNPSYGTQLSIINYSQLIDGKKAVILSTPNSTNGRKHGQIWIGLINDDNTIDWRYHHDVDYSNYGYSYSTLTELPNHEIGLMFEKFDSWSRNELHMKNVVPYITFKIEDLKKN
T3 sequence (Q54727 30-697): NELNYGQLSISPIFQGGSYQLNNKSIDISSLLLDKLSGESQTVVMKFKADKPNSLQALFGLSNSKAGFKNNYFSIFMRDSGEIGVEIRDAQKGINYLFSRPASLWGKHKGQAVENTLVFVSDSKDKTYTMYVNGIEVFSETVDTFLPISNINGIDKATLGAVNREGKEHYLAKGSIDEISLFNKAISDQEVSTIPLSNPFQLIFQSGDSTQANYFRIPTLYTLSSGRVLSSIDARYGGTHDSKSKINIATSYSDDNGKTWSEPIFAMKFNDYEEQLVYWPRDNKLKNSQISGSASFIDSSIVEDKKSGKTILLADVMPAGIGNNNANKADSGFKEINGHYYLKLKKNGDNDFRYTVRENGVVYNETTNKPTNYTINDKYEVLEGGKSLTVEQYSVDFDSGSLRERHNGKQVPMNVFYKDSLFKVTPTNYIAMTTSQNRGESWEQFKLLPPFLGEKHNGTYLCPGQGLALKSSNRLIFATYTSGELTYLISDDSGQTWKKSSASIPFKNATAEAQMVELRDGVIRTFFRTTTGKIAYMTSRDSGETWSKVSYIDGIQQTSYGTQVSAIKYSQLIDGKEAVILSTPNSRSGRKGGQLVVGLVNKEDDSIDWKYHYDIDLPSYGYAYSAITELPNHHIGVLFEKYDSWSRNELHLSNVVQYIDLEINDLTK
T1 sequence (P62576 54-1035): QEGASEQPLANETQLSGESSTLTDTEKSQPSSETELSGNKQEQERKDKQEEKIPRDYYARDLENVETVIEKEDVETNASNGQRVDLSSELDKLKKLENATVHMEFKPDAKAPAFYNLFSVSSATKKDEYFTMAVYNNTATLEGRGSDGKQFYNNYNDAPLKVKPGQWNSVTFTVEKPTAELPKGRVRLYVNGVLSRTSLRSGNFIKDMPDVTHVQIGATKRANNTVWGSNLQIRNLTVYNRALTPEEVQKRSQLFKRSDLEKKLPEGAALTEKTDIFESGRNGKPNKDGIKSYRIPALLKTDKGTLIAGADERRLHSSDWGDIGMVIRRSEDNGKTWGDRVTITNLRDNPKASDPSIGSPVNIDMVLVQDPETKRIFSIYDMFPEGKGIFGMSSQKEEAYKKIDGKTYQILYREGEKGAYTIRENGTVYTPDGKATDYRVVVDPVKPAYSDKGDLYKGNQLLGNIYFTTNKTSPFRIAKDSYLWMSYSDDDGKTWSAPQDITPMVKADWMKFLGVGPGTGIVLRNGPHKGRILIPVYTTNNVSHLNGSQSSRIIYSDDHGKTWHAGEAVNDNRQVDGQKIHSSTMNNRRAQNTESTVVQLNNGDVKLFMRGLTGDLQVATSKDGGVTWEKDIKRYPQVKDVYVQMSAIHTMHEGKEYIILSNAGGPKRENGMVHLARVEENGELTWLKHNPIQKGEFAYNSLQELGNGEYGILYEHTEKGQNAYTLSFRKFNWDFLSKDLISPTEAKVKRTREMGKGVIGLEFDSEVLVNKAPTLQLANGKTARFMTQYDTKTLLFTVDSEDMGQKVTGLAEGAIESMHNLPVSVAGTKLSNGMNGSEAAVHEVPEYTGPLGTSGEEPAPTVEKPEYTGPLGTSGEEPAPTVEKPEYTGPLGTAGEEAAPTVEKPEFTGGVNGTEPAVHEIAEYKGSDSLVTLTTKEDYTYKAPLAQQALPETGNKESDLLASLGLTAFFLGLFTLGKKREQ

O=S(=O)(O)CCNC1CCCCC1 [CHES, 2-n-cyclohexylamino ethane sulfonic acid]
inhibition of pneumococcal sialidases (in words) [1]: weak inhibitor

CC(=O)N[C@H]1[C@H]([C@H](O)[C@H](O)CO)OC(C(=O)O)=C[C@@H]1O [Neu5Ac2en, 2-deoxy-2,3-didehydro-N-acetylneuraminic acid]
inhibition of NanA (in words) [2]: significant inhibition; also recorded: inhibition constants in the micromolar range | Ki [3]: 2010 µM

CCC(CC)O[C@@H]1C=C(C(=O)O)C[C@H](N)[C@H]1NC(C)=O [Oseltamivir carboxylate]
Ki [2]: 1.77 µM | inhibition of NanA (in words) [2]: significant inhibition; also recorded: inhibition constants in the micromolar range | Ki [4]: > 7500 µM | Ki [3]: > 7500 µM

CC(=O)N[C@H]1[C@H]([C@H](O)[C@H](O)CO)OC(C(=O)O)=C[C@@H]1N=C(N)N [Zanamivir]
Ki [2]: 720 µM | inhibition of NanA (in words) [2]: Very limited inhibitory effects | Ki [4]: > 7500 µM | Ki [3]: > 7500 µM

CC(=O)N[C@H]1[C@H]([C@H](O)[C@H](O)CO)OC(Oc2ccc([N+](=O)[O-])cc2)(C(=O)O)C[C@@H]1O (some centres unmarked) [p-NP-Neu5Ac, 2-O-(p-nitrophenyl)-N-acetylneuraminic acid]
k cat / K m [5]: (3.5 ± 0.3) × 10^5 M^-1·s^-1 | K m [5, 11]: >500 µM | k cat [5, 11]: >175 s⁻¹ | k cat / K m [6]: (3.4 ± 0.3) × 10^4 M^-1·s^-1 | K m [6, 11]: > 500 µM | k cat [6, 11]: >17 s⁻¹ | k cat / K m [7]: (8.4 ± 0.9) × 10^4 M^-1·s^-1 | K m [7, 12]: >1,100 μM | k cat [7, 12]: >490 s⁻¹ | k cat / K m [8]: (1.1 ± 0.1) × 10^2 M^-1·s^-1 | K m [8, 12]: >1,200 μM | k cat [8, 12]: >11 s⁻¹ | k cat / K m [9]: (1.2 ± 0.1) × 10^4 M^-1·s^-1 | K m [9, 12]: > 700 µM | k cat [9, 12]: >11 s⁻¹ | k cat / K m [10]: (2.7 ± 0.3) × 10^2 M^-1·s^-1 | K m [10, 11]: >500 µM | k cat [10, 11]: >0.14 s⁻¹
